Assay results taken from patent publication US20230212138A1, “PHD INHIBITOR COMPOUNDS, COMPOSITIONS, AND THEIR USE” (Akebia Therapeutics, Inc., priority 2020, published 2023).

Legend:
Assay type in all cases: biochemical
full-length human PHD1 = target: T1, full-length human PHD1 (Homo sapiens, UniProt Q96KS0); assay: TR-FRET assay, PHD1 enzymatic IC50; conditions: 15 nM PHD1, 1 μM 2-OG
T1 construct: expressed in a baculovirus expression system as the full-length protein; FLAG (N); purchased Active Motif 81064; host or cells: baculovirus expression system
T1 sequence (Q96KS0 whole entry): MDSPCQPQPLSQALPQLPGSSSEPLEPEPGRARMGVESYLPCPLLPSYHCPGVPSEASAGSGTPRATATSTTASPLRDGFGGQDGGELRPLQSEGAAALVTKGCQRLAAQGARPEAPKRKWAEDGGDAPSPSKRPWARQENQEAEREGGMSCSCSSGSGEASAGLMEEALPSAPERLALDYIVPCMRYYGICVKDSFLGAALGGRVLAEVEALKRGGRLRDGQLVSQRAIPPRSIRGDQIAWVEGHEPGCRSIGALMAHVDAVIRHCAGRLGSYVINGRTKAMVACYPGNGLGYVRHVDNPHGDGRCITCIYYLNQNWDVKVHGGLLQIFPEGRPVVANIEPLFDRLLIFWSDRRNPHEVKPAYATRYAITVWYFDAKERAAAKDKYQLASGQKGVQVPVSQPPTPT
Text: (§1) In the presence of 2-oxoglutarate and O2, PHD enzyme hydroxylates proline 564 of biotin-tagged HIF-1α peptide resulting in generation of biotin-tagged HIF-1α-hydroxyproline, succinate and CO2. The resulting proximity of the donor fluorophore complex, monoclonal antibody anti-6His-Terbium (Tb)-cryptate Gold, bound to the His-tagged VHL protein, EloB, EloC complex (His-VBC) and the acceptor fluorophore, SA-D2 complex, bound to HIF-1α-hydroxyproline results in a fluorescence resonance energy transfer signal that can be detected and quantified
(§2) Time-resolved fluorescence resonance energy transfer (TR-FRET) assay was utilized to determine the enzymatic half maximal inhibitory concentration (IC50) value of PHD inhibitors against the full-length human prolyl-4-hydroxylase domain (PHD) enzymes, PHD1, PHD2, and PHD3. The TR-FRET assay was developed based on the specific binding of hydroxylated HIF-1α peptide with the complex formed by VHL, EloB and EloC (VBC), to generate a fluorescent signal. Terbium (Tb)-Donor (monoclonal antibody anti-6His-Tb-cryptate Gold) and D2-acceptor (streptavidin [SA]-D2) of TR-FRET are linked to the VBC complex and to HIF-1α peptide, respectively. The VBC complex binds specifically to the HIF-1α peptide when it is hydroxylated, allowing energy transfer from TR-FRET donor to acceptor (FIG. 1).
Recombinant human PHD1 protein (catalog #81064, Lot #24717001) was purchased from Active Motif (Carlsbad, Calif., USA). PHD1 was expressed in a baculovirus expression system as the full-length protein (NCBI accession number NP_542770.2) with an N-terminal FLAG tag (molecular weight 44.9 kDa). Purity (>90%) was assessed by SDS-PAGE.
(§3) PHD inhibitor compound was preincubated with PHD enzyme in a 10 μL reaction volume in white 384-well Optiplate microplates (catalog #6007290, Perkin Elmer, Waltham, Mass., USA). For this, 5 μL PHD inhibitor compound was serially diluted with dilution buffer (50 mM HEPES [4-(2-hydroxyethyl)-1-piperazineethanesulfonic acid] pH 7.5, 50 mM sodium chloride [NaCl], 0.01% Tween-20, 0.01% purified bovine serum albumin [BSA]) and mixed with 5 μL PHD enzyme mix prepared as a 4× concentrate in the dilution buffer containing PHD enzyme (60 nM PHD1, 20 nM PHD2, 140 nM PHD3), 40 μM ferrous ammonium sulfate (FAS), 4 mM sodium (Na) ascorbate. The plates were incubated for 30 minutes at room temperature without rotation.
(§4) Five microliters of the VBC/anti-6His-Tb-cryptate Gold mix prepared as a 4×concentrate in dilution buffer containing 20 nM His-VBC, 1.32 nM monoclonal antibody anti-6His-Tb-cryptate Gold was then added. This step was followed immediately by the addition of 5 μL of the HIF-1α C35 substrate mix prepared as a 4×concentrate in the dilution buffer containing 120 nM biotin-labeled HIF-1α C35, 132 nM SA-D2, 4 μM 2-oxoglutarate (2-OG) to reach a final reaction volume of 20 μL.
(§5) The final assay reaction contained 50 mM HEPES, pH 7.5, 50 mM NaCl, 1 μM 2-OG, 10 μM FAS, 1 mM Na ascorbate, 0.01% Tween-20, 0.01% purified BSA, 30 nM biotin-labeled HIF-1α C35, 5 nM His-VBC, 0.33 nM monoclonal antibody anti-6His-Tb-cryptate Gold, 33 nM SA-D2 and PHD enzyme (15 nM PHD1, 5 nM PHD2, or 35 nM PHD3) with the diluted compound.
(§6) For the measurement of the IC50 of PHD inhibitor compound, reactions were incubated for 10 minutes at room temperature and then read on a Perkin Elmer EnVision (Waltham, Mass., USA) at an excitation wavelength of 340 nm and at emission wavelengths of 615 nm and 665 nm. The data represent the quotient of the signal intensity at 665 nm and 615 nm, automatically calculated by Envision Manager software (Perkin Elmer, Waltham, Mass., USA). The IC50 values (mean, standard deviation, standard error of the mean, geometric mean and 95% confidence interval) were determined using a four-parameter curve-fit using GraphPad Prism 7.0 (GraphPad, La Jolla, Calif., USA) and represent the compound concentration plotted against the calculated ratio of 665 nm and 615 nm. […]

full-length human PHD2 = target: T2, full-length human PHD2 (Homo sapiens, UniProt Q9GZT9); assay: TR-FRET assay, PHD2 enzymatic IC50; conditions: 5 nM PHD2, 1 μM 2-OG
T2 construct: The PHD2 construct contained amino acids 1 to 426 of PHD2; His tag (N, cleaved yes); TEV protease cleavage site (N, cleaved yes); host or cells: Sf9 insect cells (baculovirus)
T2 sequence (Q9GZT9 whole entry, the tested form may be a part): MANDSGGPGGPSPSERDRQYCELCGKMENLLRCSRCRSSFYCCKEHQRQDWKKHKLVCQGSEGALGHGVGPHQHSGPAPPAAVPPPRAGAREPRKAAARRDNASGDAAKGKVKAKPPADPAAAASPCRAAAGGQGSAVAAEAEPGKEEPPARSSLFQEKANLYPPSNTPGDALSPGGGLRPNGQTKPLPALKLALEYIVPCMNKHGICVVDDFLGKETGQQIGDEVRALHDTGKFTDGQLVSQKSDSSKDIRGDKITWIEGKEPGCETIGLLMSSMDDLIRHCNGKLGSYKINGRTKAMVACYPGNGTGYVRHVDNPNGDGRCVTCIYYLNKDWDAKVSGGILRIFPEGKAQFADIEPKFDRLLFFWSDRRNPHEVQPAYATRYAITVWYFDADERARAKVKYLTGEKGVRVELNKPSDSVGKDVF
Text: as §1, §2
The full-length human PHD2 enzyme was produced with a baculovirus infected insect cell (BIIC) expression system by Beryllium (Bedford, Mass., USA). The PHD2 construct contained amino acids 1 to 426 of PHD2 (UniProt Knowledgebase[UniProtKB]/Swiss-Prot accession number Q9GZT9.1), and a His tag and a Tobacco Etch Virus (TEV) protease cleavage site at the N-terminus. The construct was expressed in Sf9 insect cells, purified by Ni-NTA column and digested with TEV protease to remove the His tag.
as §3, §4, §5
For the measurement of the IC50 of PHD inhibitor compound, reactions were incubated for 10 minutes at room temperature and then read on a Perkin Elmer EnVision (Waltham, Mass., USA) at an excitation wavelength of 340 nm and at emission wavelengths of 615 nm and 665 nm. The data represent the quotient of the signal intensity at 665 nm and 615 nm, automatically calculated by Envision Manager software (Perkin Elmer, Waltham, Mass., USA). […]

full-length human PHD3 = target: T3, full-length human PHD3 (Homo sapiens, UniProt Q9H6Z9); assay: TR-FRET assay, PHD3 enzymatic IC50; conditions: 35 nM PHD3, 1 μM 2-OG
T3 construct: It was expressed in E. coli as the full-length protein; 6-His (N); purchased Active Motif 81033; host or cells: E. coli
T3 sequence (Q9H6Z9 whole entry): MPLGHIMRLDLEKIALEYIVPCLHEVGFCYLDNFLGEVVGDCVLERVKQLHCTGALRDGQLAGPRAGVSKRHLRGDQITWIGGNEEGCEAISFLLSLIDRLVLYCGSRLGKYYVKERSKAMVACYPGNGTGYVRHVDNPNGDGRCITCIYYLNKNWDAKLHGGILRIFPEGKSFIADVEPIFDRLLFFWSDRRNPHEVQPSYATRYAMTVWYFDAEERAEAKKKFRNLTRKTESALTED
Text: as §1, §2
Recombinant human PHD3 protein (molecular weight 31.1 kDa) was purchased from Active Motif (Carlsbad, Calif., USA). It was expressed in E. coli as the full-length protein (NCBI accession number NP_071356.1) with an N-terminal 6-His tag (catalog #81033, Lot #24417001).
as §3, §4, §5, §6

Row | SMILES | IC50 (full-length human PHD1) [nM] | IC50 (full-length human PHD2) [nM] | IC50 (full-length human PHD3) [nM]
1 | CS(=O)(=O)c1ccc(-n2ncc(-c3ccc(Cl)cc3)c2O)nc1 [Compound 19, 4-(4-chlorophenyl)-1-(5-(methylsulfonyl)pyridin-2-yl)-1H-pyrazol-5-ol] | < 100 | < 100 | 100 to 1000
2 | CS(=O)(=O)c1ccc(-n2ncc(-c3ccc(CC#N)cc3)c2O)nc1 [Compound 7, 2-(4-(5-hydroxy-1-(5-(methylsulfonyl)pyridin-2-yl)-1H-pyrazol-4-yl)phenyl)acetonitrile] | < 100 | < 100 | < 100
3 | N#Cc1ccc(-c2cnn(-c3ccc(-c4ncco4)cn3)c2O)cc1 [Compound 11, 4-(5-hydroxy-1-(5-(oxazol-2-yl)pyridin-2-yl)-1H-pyrazol-4-yl)benzonitrile] | < 100 | < 100 | 100 to 1000
4 | CS(=O)(=O)c1ccc(-n2ncc(-c3ccc(C#N)cc3)c2O)nc1 [Compound 4, 4-(5-hydroxy-1-(5-(methylsulfonyl)pyridin-2-yl)-1H-pyrazol-4-yl)benzonitrile] | < 100 | < 100 | < 100
5 | CS(=O)(=O)Nc1ccc(-n2ncc(-c3ccc(C#N)cc3)c2O)nc1 [Compound 24, N-(6-(4-(4-cyanophenyl)-5-hydroxy-1H-pyrazol-1-yl)pyridin-3-yl)methanesulfonamide] | < 100 | < 100 | < 100
6 | CC(=O)c1ccc(-n2ncc(-c3ccc(C#N)cc3)c2O)nc1 [Compound 1, 4-(1-(5-acetylpyridin-2-yl)-5-hydroxy-1H-pyrazol-4-yl)benzonitrile] | < 100 | < 100 | < 100
7 | N#Cc1ccc(-c2cnn(-c3ccc(F)cn3)c2O)cc1 [Compound 17, 4-(1-(5-fluoropyridin-2-yl)-5-hydroxy-1H-pyrazol-4-yl)benzonitrile] | < 100 | < 100 | 100 to 1000
8 | CS(=O)(=O)c1ccc(-n2ncc(-c3ccc(Br)cc3)c2O)nc1 [Compound 9, 4-(4-bromophenyl)-1-(5-(methylsulfonyl)pyridin-2-yl)-1H-pyrazol-5-ol] | < 100 | < 100 | 100 to 1000
9 | CCC(=O)Nc1ccc(-n2ncc(-c3ccc(C#N)cc3)c2O)nc1 [Compound 23, N-(6-(4-(4-cyanophenyl)-5-hydroxy-1H-pyrazol-1-yl)pyridin-3-yl)propionamide] | < 100 | < 100 | < 100
10 | N#Cc1ccc(-c2cnn(-c3ccc(NC(=O)C4CC4)cn3)c2O)cc1 [Compound 22, N-(6-(4-(4-cyanophenyl)-5-hydroxy-1H-pyrazol-1-yl)pyridin-3-yl)-cyclopropanecarboxamide] | < 100 | < 100 | 100 to 1000
11 | Cc1cc(C#N)ccc1-c1cnn(-c2ccc(S(C)(=O)=O)cn2)c1O [Compound 6, 4-(5-hydroxy-1-(5-(methylsulfonyl)pyridin-2-yl)-1H-pyrazol-4-yl)-3-methylbenzonitrile] | < 100 | < 100 | < 100
